Active and inactive are the calls of the source. The calls are words filed in the database; no cut-off is given here.
Experiments:
[1] = target: T1, von Hippel-Lindau disease tumor suppressor/Polymerase acidic protein (Influenza A virus (A/Puerto Rico/8/1934(H1N1))) (UniProt P03433+P40337); test: PROTAC activity at Influenza A virus A/WSN/33(H1N1) flag tagged Polymerase acidic protein/VHL (unknown origin) expressed in HEK293T cells assessed as degradation of PA expression at 5 uM incubated for 24 hrs by Western blotting analysis; assay type: cell-based
[2] = Selectivity index, ratio of CC50 for cytotoxicity against human HEK293T cells to EC50 for anti-influenza activity against Influenza A virus A/WSN/33(H1N1) infected in HEK293T cells assessed as reduction in virus-induced cytopathic effect; assay type: toxicity, cell-based; settings: read-out: Ratio CC50/EC50
Influenza A virus [3] = test: Anti-influenza activity against Influenza A virus A/WSN/33(H1N1) infected in HEK293T cells assessed as reduction in virus-induced cytopathic effect incubated for 48 hrs by CCK-8 assay; assay type: functional, organism-based; settings: HEK-293T
[4] = target: T2, von Hippel-Lindau disease tumor suppressor/Polymerase basic protein 1 (Influenza A virus (strain A/Puerto Rico/8/1934 H1N1)) (UniProt P03431+P40337); test: PROTAC activity at Influenza A virus A/WSN/33(H1N1) flag tagged Polymerase basic protein 1/VHL (unknown origin) expressed in HEK293T cells assessed as degradation of PB1 expression at 1 ug/ml incubated for 24 hrs by Western blotting analysis; assay type: cell-based; settings: dose 1.0 µg/ml
[5] = target: T3, von Hippel-Lindau disease tumor suppressor/Polymerase basic protein 2 (Influenza A virus (strain A/Puerto Rico/8/1934 H1N1)) (UniProt P40337+P03428); test: PROTAC activity at Influenza A virus A/WSN/33(H1N1) flag tagged Polymerase basic protein 2/VHL (unknown origin) expressed in HEK293T cells assessed as degradation of PB2 expression at 10 ug/ml incubated for 24 hrs by Western blotting analysis; assay type: cell-based; settings: dose 10.0 µg/ml
[6] = Cytotoxicity against human HEK293T cells assessed as reduction in cell viability incubated for 48 hrs by CCK-8 assay; assay type: toxicity, cell-based, HEK-293T
[7] = target: T2, von Hippel-Lindau disease tumor suppressor/Polymerase basic protein 1 (Influenza A virus (strain A/Puerto Rico/8/1934 H1N1)); test: PROTAC activity at Influenza A virus A/WSN/33(H1N1) flag tagged Polymerase basic protein 1/VHL (unknown origin) expressed in HEK293T cells assessed as degradation of PB1 expression at 10 ug/ml incubated for 24 hrs by Western blotting analysis; assay type: cell-based; settings: dose 10.0 µg/ml
[8] = target: T3, von Hippel-Lindau disease tumor suppressor/Polymerase basic protein 2 (Influenza A virus (strain A/Puerto Rico/8/1934 H1N1)); test: PROTAC activity at Influenza A virus A/WSN/33(H1N1) flag tagged Polymerase basic protein 2/VHL (unknown origin) expressed in HEK293T cells assessed as degradation of PB2 expression at 1 ug/ml incubated for 24 hrs by Western blotting analysis; assay type: cell-based; settings: dose 1.0 µg/ml
[9] = Stability in human plasma assessed as compound remaining by LC-MS/MS analysis; assay type: ADME, cell-free
[10] = Half life in human plasma by LC-MS/MS analysis; assay type: ADME, cell-free
[11] = Stability in human plasma assessed as compound remaining measured after 30 mins by LC-MS/MS analysis; assay type: ADME, cell-free; settings: 0.5 h, BLD = below limit of detection
[12] = Stability in human plasma assessed as compound remaining measured after 5 mins by LC-MS/MS analysis; assay type: ADME, cell-free; settings: read-out: Stability
[13] = Stability in human plasma assessed as compound remaining measured after 15 mins by LC-MS/MS analysis; assay type: ADME, cell-free; settings: 0.25 h, BLD = below limit of detection
[14] = Stability in human plasma assessed as compound remaining measured after 60 mins by LC-MS/MS analysis; assay type: ADME, cell-free; settings: read-out: Stability
[15] = Stability in human plasma assessed as compound remaining measured after 120 mins by LC-MS/MS analysis; assay type: ADME, cell-free; settings: 2 h, BLD = below limit of detection
[16] = Hepatic extraction ratio in mouse liver microsomes preincubated for 5 mins followed by NADPH addition and measured for 45 mins by LC-MS analysis; assay type: ADME, Microsome; settings: time 50 min, read-out: ERH
[17] = Hepatic extraction ratio in dog liver microsomes preincubated for 5 mins followed by NADPH addition and measured for 45 mins by LC-MS analysis; assay type: ADME, Canis lupus familiaris, Microsome; settings: time 50 min, read-out: ERH
[18] = Hepatic extraction ratio in human liver microsomes preincubated for 5 mins followed by NADPH addition and measured for 45 mins by LC-MS analysis; assay type: ADME, Microsome; settings: time 50 min, read-out: ERH
Influenza B virus [19] = test: Anti-influenza activity against Influenza B virus Victoria/2/87 infected in HEK293T cells assessed as reduction in virus-induced cytopathic effect incubated for 48 hrs by CCK-8 assay; assay type: functional, organism-based; settings: Victoria/2/87, HEK-293T
Influenza A virus [20] = test: Anti-influenza activity against Influenza A virus H3N2 infected in HEK293T cells assessed as reduction in virus-induced cytopathic effect incubated for 48 hrs by CCK-8 assay; assay type: functional, organism-based; settings: H3N2, HEK-293T
Influenza B virus [21] = test: Anti-influenza activity against Influenza B virus Yamagata/16/88 infected in HEK293T cells assessed as reduction in virus-induced cytopathic effect incubated for 48 hrs by CCK-8 assay; assay type: functional, organism-based; settings: Yamagata/16/88, HEK-293T
[22] = target: T1, von Hippel-Lindau disease tumor suppressor/Polymerase acidic protein (Influenza A virus (A/Puerto Rico/8/1934(H1N1))); test: PROTAC activity at Influenza A virus A/WSN/33(H1N1) flag tagged Polymerase acidic protein/VHL (unknown origin) expressed in HEK293T cells assessed as degradation of PA expression at 10 uM incubated for 24 hrs by Western blotting analysis; assay type: cell-based

SMILES	selectivity ratio [2]	EC50 (Influenza A virus [3])	Activity [4]	Activity [5]	CC50 at 48 h [6]	Activity [7]	Activity [8]	also measured
CCCCCCCCNC(=O)[C@H](CCCCNC(=O)OC(C)(C)C)NC(=O)OC(C)(C)C								Activity [1]: inactive
CC(C)(C)OC(=O)N[C@@H](Cc1c[nH]c2ccccc12)C(=O)Nc1ccc(NC(=S)NC(=O)c2ccc(C(C)(C)C)cc2)cc1	> 246	407 nM	inactive	inactive	> 100000 nM	inactive	inactive	
CCN(CC)CCOC(=O)c1ccc(N)cc1 [PROCAINE]								Stability [9]: 100%; half-life [10]: 1.12 min; Stability [11]: Bld; remaining at 5 min [12]: 4.49%; Stability [13]: Bld; remaining at 1 h [14]: 0.1%; Stability [15]: Bld
O=C(c1ccc(F)cc1)C1CCN(CCn2c(=O)[nH]c3ccccc3c2=O)CC1 [KETANSERIN]								hepatic extraction ratio at 0.75 h [16]: 0.765; hepatic extraction ratio at 0.75 h [17]: 0.697; hepatic extraction ratio at 0.75 h [18]: 0.693
NC(=O)c1nc(F)cnc1O [FAVIPIRAVIR]	> 18.1	8290 nM			> 100000 nM			EC50 (Influenza B virus [19]): > 10000 nM; EC50 (Influenza A virus [20]): > 10000 nM; EC50 (Influenza B virus [21]): > 10000 nM
CC(C)(C)c1ccc(C(=O)NC(=S)Nc2ccc(NC(=O)CCCCCCCN)cc2)cc1		> 43000 nM						
CC(C)(C)OC(=O)NCCCC[C@H](NC(=O)OC(C)(C)C)C(=O)NCCCCCCC(=O)Nc1ccc(NC(=S)NC(=O)c2ccc(C(C)(C)C)cc2)cc1	> 1330	75 nM	inactive	inactive	> 100000 nM	inactive	inactive	Activity [22]: Active
CC(C)(C)OC(=O)NCCCC[C@H](NC(=O)OC(C)(C)C)C(=O)NCCCCCCCCCCC(=O)Nc1ccc(NC(=S)NC(=O)c2ccc(C(C)(C)C)cc2)cc1	400	186 nM	inactive	inactive	74500 nM	inactive	inactive	Activity [22]: Active
CC(C)(C)OC(=O)N[C@@H](Cc1c[nH]c2ccccc12)C(=O)NCCCCCCCCCC(=O)Nc1ccc(NC(=S)NC(=O)c2ccc(C(C)(C)C)cc2)cc1	> 1560	64 nM	inactive	inactive	> 100000 nM	inactive	inactive	Activity [22]: Active
CC(C)(C)OC(=O)NCCCC[C@H](NC(=O)OC(C)(C)C)C(=O)NCCCCCCCCCC(=O)Nc1ccc(NC(=S)NC(=O)c2ccc(C(C)(C)C)cc2)cc1	> 2220	45 nM	inactive	inactive	> 100000 nM	inactive	inactive	Activity [22]: Active
CC(C)(C)OC(=O)N[C@@H](Cc1c[nH]c2ccccc12)C(=O)NCCCCCCCC(=O)Nc1ccc(NC(=S)NC(=O)c2ccc(C(C)(C)C)cc2)cc1	> 2330	43 nM	inactive	inactive	> 100000 nM	inactive	inactive	
CC(C)(C)c1ccc(C(=O)NC(=S)Nc2ccc(NC(=O)CCCCCCCNC(=O)[C@@H](N)Cc3cnc[nH]3)cc2)cc1								Activity [1]: inactive
CC(C)(C)c1ccc(C(=O)NC(=S)Nc2ccc(NC(=O)CCCCCCCNC(=O)[C@@H](N)CC(N)=O)cc2)cc1								Activity [1]: inactive
CC(C)(C)OC(=O)N[C@@H](Cc1c[nH]c2ccccc12)C(=O)NCCCCCCCCCCCC(=O)Nc1ccc(NC(=S)NC(=O)c2ccc(C(C)(C)C)cc2)cc1	> 103	974 nM	inactive	inactive	> 100000 nM	inactive	inactive	
CC(C)(C)OC(=O)N[C@@H](Cc1c[nH]c2ccccc12)C(=O)NCCCCCCCCCCC(=O)Nc1ccc(NC(=S)NC(=O)c2ccc(C(C)(C)C)cc2)cc1	109	383 nM	inactive	inactive	41800 nM	inactive	inactive	
CC(C)(C)OC(=O)NCCCC[C@H](NC(=O)OC(C)(C)C)C(=O)NCCCCCCCCCCCC(=O)Nc1ccc(NC(=S)NC(=O)c2ccc(C(C)(C)C)cc2)cc1	> 187	534 nM	inactive	inactive	> 100000 nM	inactive	inactive	
CC(C)(C)OC(=O)N[C@@H](Cc1c[nH]c2ccccc12)C(=O)NCCCC(=O)Nc1ccc(NC(=S)NC(=O)c2ccc(C(C)(C)C)cc2)cc1	167	572 nM	inactive	inactive	95400 nM	inactive	inactive	
CC(C)(C)c1ccc(C(=O)NC(=S)Nc2ccc(NC(=O)CCCCCCCCCN)cc2)cc1	21.1	298 nM			< 6290 nM			
CC(C)(C)OC(=O)N[C@@H](Cc1c[nH]c2ccccc12)C(=O)NCCCCCCC(=O)Nc1ccc(NC(=S)NC(=O)c2ccc(C(C)(C)C)cc2)cc1	> 592	169 nM	inactive	inactive	> 100000 nM	inactive	inactive	
CC(C)(C)OC(=O)N[C@@H](Cc1c[nH]c2ccccc12)C(=O)NCCCCCC(=O)Nc1ccc(NC(=S)NC(=O)c2ccc(C(C)(C)C)cc2)cc1	> 291	344 nM	inactive	inactive	> 100000 nM	inactive	inactive	
CC(C)(C)c1ccc(C(=O)NC(=S)Nc2ccc(NC(=O)CCCCCCCCN)cc2)cc1	17.7	365 nM			6470 nM			
CC(C)(C)c1ccc(C(=O)NC(=S)Nc2ccc(NC(=O)CCCCCCN)cc2)cc1		> 44000 nM						
CC(C)(C)OC(=O)/N=C(\NCCC[C@H](NC(=O)OC(C)(C)C)C(=O)NCCCCCCCC(=O)Nc1ccc(NC(=S)NC(=O)c2ccc(C(C)(C)C)cc2)cc1)NC(=O)OC(C)(C)C	> 267	374 nM	inactive	inactive	> 100000 nM	inactive	inactive	
CC(C)(C)OC(=O)NCCCC[C@H](NC(=O)OC(C)(C)C)C(=O)NCCOCCOCC(=O)Nc1ccc(NC(=S)NC(=O)c2ccc(C(C)(C)C)cc2)cc1		> 25000 nM						

Source: ChEMBL document CHEMBL5512674, “Novel Acyl Thiourea-Based Hydrophobic Tagging Degraders Exert Potent Anti-Influenza Activity through Two Distinct Endonuclease Polymerase Acidic-Targeted Degradation Pathways” (J Med Chem, 2024)
